# Results taken from PubChem BioAssay AID1963828 (Molecular Pharmacology Branch, DTP, NCI, 2024).
# Test system: 991263-137-R1-J2-PDC complex spheroid viability
# Test: Anticancer human tumor 991263-137-R1-J2-PDC patient-derived colon adenocarcinoma cell line growth inhibition [POLQ]
# Conditions: for IC50: curve of first compound; for viability, T/C: stronger effect = lower value
# Outline: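 Three-cell-type spheroids modelling solid tumor plus stroma served as the readout system; POL inhibitors were tested individually and in combination, concentration ranges set by clinical Cmax where known.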
# [1] = second compound 0.0316 µM, first compound 0.0316 µM
# [2] = second compound 0.0316 µM, first compound 0.1 µM
# [3] = second compound 0.0316 µM, first compound 0.316 µM
# [4] = second compound 0.0316 µM, first compound 1 µM
# [5] = second compound 0.0316 µM, first compound 3.16 µM
# [6] = second compound 0.0316 µM, first compound 10 µM
# [7] = second compound 0.1 µM, first compound 0.0316 µM
# [8] = second compound 0.1 µM, first compound 0.1 µM
# [9] = second compound 0.1 µM, first compound 0.316 µM
# [10] = second compound 0.1 µM, first compound 1 µM
# [11] = second compound 0.1 µM, first compound 3.16 µM
# [12] = second compound 0.1 µM, first compound 10 µM
# [13] = second compound 0.316 µM, first compound 0.0316 µM
# [14] = second compound 0.316 µM, first compound 0.1 µM
# [15] = second compound 0.316 µM, first compound 0.316 µM
# [16] = second compound 0.316 µM, first compound 1 µM
# [17] = second compound 0.316 µM, first compound 3.16 µM
# [18] = second compound 0.316 µM, first compound 10 µM
# [19] = second compound 1 µM, first compound 0.0316 µM
# [20] = second compound 1 µM, first compound 0.1 µM
# [21] = second compound 1 µM, first compound 0.316 µM
# [22] = second compound 1 µM, first compound 1 µM
# [23] = second compound 1 µM, first compound 3.16 µM
# [24] = second compound 1 µM, first compound 10 µM
# [25] = second compound 3.16 µM, first compound 0.0316 µM
# [26] = second compound 3.16 µM, first compound 0.1 µM
# [27] = second compound 3.16 µM, first compound 0.316 µM
# [28] = second compound 3.16 µM, first compound 1 µM
# [29] = second compound 3.16 µM, first compound 3.16 µM
# [30] = second compound 3.16 µM, first compound 10 µM
# [31] = second compound 10 µM, first compound 0.0316 µM
# [32] = second compound 10 µM, first compound 0.1 µM
# [33] = second compound 10 µM, first compound 0.316 µM
# [34] = second compound 10 µM, first compound 1 µM
# [35] = second compound 10 µM, first compound 3.16 µM
# [36] = second compound 10 µM, first compound 10 µM
# 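Note: spheroids exposed to compounds for 7 days before readout.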
# 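Throughout, for viability, T/C: 100% = DMSO vehicle control viability.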
smiles,measurement,setting,value
CCCS(=O)(=O)Nc1ccc(F)c(C(=O)c2c[nH]c3ncc(-c4ccc(Cl)cc4)cc23)c1F + Cc1cccc(N(C)C(=O)C2C(O)CCN2c2nc(C)cc(C(F)(F)F)c2C#N)c1,IC50,second compound 0.0316 µM,> 10 µM
same,IC50,second compound 0.1 µM,> 10 µM
same,IC50,second compound 0.316 µM,> 10 µM
same,IC50,second compound 1 µM,> 10 µM
same,IC50,second compound 3.16 µM,> 10 µM
same,IC50,second compound 10 µM,> 10 µM
same,"viability, T/C",[1],112%
same,"viability, T/C",[2],98.6%
same,"viability, T/C",[3],98%
same,"viability, T/C",[4],103%
same,"viability, T/C",[5],106%
same,"viability, T/C",[6],99.9%
same,"viability, T/C",[7],103%
same,"viability, T/C",[8],109%
same,"viability, T/C",[9],105%
same,"viability, T/C",[10],114%
same,"viability, T/C",[11],106%
same,"viability, T/C",[12],104%
same,"viability, T/C",[13],101%
same,"viability, T/C",[14],102%
same,"viability, T/C",[15],85.2%
same,"viability, T/C",[16],97.5%
same,"viability, T/C",[17],101%
same,"viability, T/C",[18],106%
same,"viability, T/C",[19],96.8%
same,"viability, T/C",[20],97.5%
same,"viability, T/C",[21],95.5%
same,"viability, T/C",[22],95.7%
same,"viability, T/C",[23],100%
same,"viability, T/C",[24],92.3%
same,"viability, T/C",[25],99.8%
same,"viability, T/C",[26],96.7%
same,"viability, T/C",[27],93.5%
same,"viability, T/C",[28],99.1%
same,"viability, T/C",[29],109%
same,"viability, T/C",[30],84.5%
same,"viability, T/C",[31],101%
same,"viability, T/C",[32],98.5%
same,"viability, T/C",[33],97.3%
same,"viability, T/C",[34],92.5%
same,"viability, T/C",[35],101%
same,"viability, T/C",[36],89.2%
CC1COCCN1c1cc(C2(O)CC3CCC(C2)O3)c2cnn(-c3ccn[nH]3)c2n1 (stereo unspecified) + COC1C(OC(N)=O)C(O)C(Oc2ccc3c(O)c(NC(=O)c4ccc(O)c(CC=C(C)C)c4)c(=O)oc3c2C)OC1(C)C,IC50,second compound 0.0316 µM,1.46 µM
same,IC50,second compound 0.1 µM,1.93 µM
same,IC50,second compound 0.316 µM,0.947 µM
same,IC50,second compound 1 µM,1.58 µM
same,IC50,second compound 3.16 µM,1.87 µM
same,IC50,second compound 10 µM,1.45 µM
same,"viability, T/C",[1],85.5%
same,"viability, T/C",[2],95.5%
same,"viability, T/C",[3],81.5%
same,"viability, T/C",[4],58.6%
same,"viability, T/C",[5],33.2%
same,"viability, T/C",[6],29.4%
same,"viability, T/C",[7],102%
same,"viability, T/C",[8],95.3%
same,"viability, T/C",[9],80.4%
same,"viability, T/C",[10],64.8%
same,"viability, T/C",[11],39%
same,"viability, T/C",[12],25%
same,"viability, T/C",[13],106%
same,"viability, T/C",[14],100%
same,"viability, T/C",[15],78.9%
same,"viability, T/C",[16],50.5%
same,"viability, T/C",[17],26.5%
same,"viability, T/C",[18],26.1%
same,"viability, T/C",[19],104%
same,"viability, T/C",[20],106%
same,"viability, T/C",[21],85.7%
same,"viability, T/C",[22],59.8%
same,"viability, T/C",[23],36.2%
same,"viability, T/C",[24],23.7%
same,"viability, T/C",[25],89.8%
same,"viability, T/C",[26],76.4%
same,"viability, T/C",[27],73.9%
same,"viability, T/C",[28],56.1%
same,"viability, T/C",[29],46%
same,"viability, T/C",[30],21.6%
same,"viability, T/C",[31],84.7%
same,"viability, T/C",[32],95.8%
same,"viability, T/C",[33],74.3%
same,"viability, T/C",[34],56.4%
same,"viability, T/C",[35],36.7%
same,"viability, T/C",[36],21.2%
COc1cccc2c1C(=O)c1c(O)c3c(c(O)c1C2=O)CC(O)(C(=O)CO)CC3OC1CC(N)C(O)C(C)O1 (stereo unspecified) + Nc1ccc(C#CCN(C(=O)Cc2ncc(C(F)(F)F)cc2C(F)(F)F)c2ccc(F)cc2)nn1,IC50,second compound 0.0316 µM,1.27 µM
same,IC50,second compound 0.1 µM,1.48 µM
same,IC50,second compound 0.316 µM,1.25 µM
same,IC50,second compound 1 µM,1.04 µM
same,IC50,second compound 3.16 µM,0.822 µM
same,IC50,second compound 10 µM,0.614 µM
same,"viability, T/C",[1],102%
same,"viability, T/C",[2],92.4%
same,"viability, T/C",[3],92.8%
same,"viability, T/C",[4],51.7%
same,"viability, T/C",[5],43.4%
same,"viability, T/C",[6],42.6%
same,"viability, T/C",[7],103%
same,"viability, T/C",[8],97.8%
same,"viability, T/C",[9],91.5%
same,"viability, T/C",[10],53.2%
same,"viability, T/C",[11],45.1%
same,"viability, T/C",[12],40.2%
same,"viability, T/C",[13],94.7%
same,"viability, T/C",[14],98%
same,"viability, T/C",[15],91.9%
same,"viability, T/C",[16],53%
same,"viability, T/C",[17],38%
same,"viability, T/C",[18],35.1%
same,"viability, T/C",[19],88.6%
same,"viability, T/C",[20],109%
same,"viability, T/C",[21],81.8%
same,"viability, T/C",[22],52%
same,"viability, T/C",[23],37.4%
same,"viability, T/C",[24],37.4%
same,"viability, T/C",[25],90.6%
same,"viability, T/C",[26],94.3%
same,"viability, T/C",[27],76.9%
same,"viability, T/C",[28],43.8%
same,"viability, T/C",[29],38.4%
same,"viability, T/C",[30],28.8%
same,"viability, T/C",[31],91.6%
same,"viability, T/C",[32],88.4%
same,"viability, T/C",[33],61.2%
same,"viability, T/C",[34],39.3%
same,"viability, T/C",[35],28.8%
same,"viability, T/C",[36],16.4%
